Among the data in patent publication US20230151003A1, “COMPOUNDS AND METHODS OF USE” (Exelixis, Inc., priority 2020, published 2023) are IC50 values, retold here.

Counter-ions that a name gives are not always drawn.

One assay concerns the target KDR (Homo sapiens, UniProt P35968). Put plainly: KDR autophosphorylation ELISA in HUVEC cells. Format: cell-based. Also noted: endogenous in cells; host or cells: HUVEC (Lonza #C2519A). To be noted: Table 3 Cellular Activities, VEGF165-stimulated, phospho-KDR ELISA. In a few lines:
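HUVEC, 24 h serum-free starvation; cpd 8-pt dilution, 0.3% DMSO final, 1 h; VEGF165 100 ng/mL, 5 min; cold lysis; phospho-KDR ELISA; IC50, 4PL.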

The next assay concerns the target T1, AXL (Homo sapiens, UniProt P30530).
T1 construct: endogenous in cells; host or cells: A-172 glioblastoma cells (ATCC #CRL-1620)
T1 sequence (P30530 26-894): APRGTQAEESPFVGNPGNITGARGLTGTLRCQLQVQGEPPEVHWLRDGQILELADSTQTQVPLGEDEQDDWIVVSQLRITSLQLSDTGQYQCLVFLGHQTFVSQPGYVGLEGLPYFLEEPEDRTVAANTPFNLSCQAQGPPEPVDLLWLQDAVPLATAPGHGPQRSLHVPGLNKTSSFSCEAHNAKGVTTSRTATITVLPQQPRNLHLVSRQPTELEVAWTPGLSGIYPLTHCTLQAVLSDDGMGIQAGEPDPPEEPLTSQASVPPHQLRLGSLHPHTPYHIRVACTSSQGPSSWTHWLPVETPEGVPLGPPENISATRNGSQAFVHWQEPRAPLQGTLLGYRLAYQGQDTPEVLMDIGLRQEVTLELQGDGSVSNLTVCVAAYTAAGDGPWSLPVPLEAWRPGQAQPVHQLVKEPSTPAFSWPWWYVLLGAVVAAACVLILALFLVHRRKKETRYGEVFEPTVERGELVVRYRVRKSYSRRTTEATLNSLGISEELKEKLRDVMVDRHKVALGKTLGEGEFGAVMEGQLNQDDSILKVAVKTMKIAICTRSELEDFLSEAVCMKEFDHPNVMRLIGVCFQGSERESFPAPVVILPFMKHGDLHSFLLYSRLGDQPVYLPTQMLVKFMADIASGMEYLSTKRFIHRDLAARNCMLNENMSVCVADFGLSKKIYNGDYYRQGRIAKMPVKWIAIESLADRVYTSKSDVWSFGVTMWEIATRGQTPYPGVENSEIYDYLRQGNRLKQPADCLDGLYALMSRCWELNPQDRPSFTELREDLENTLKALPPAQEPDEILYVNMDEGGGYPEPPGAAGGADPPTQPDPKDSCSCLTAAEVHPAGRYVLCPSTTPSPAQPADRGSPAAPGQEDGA
Put plainly: AXL autophosphorylation ELISA in A-172 cells. The following applies: Table 3 Cellular Activities, Gas6-stimulated, phospho-AXL ELISA. The class given is cell-based. Summed up:
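Phospho-AXL in lysates measured by ELISA after Gas6 stimulation (1 μg/mL, 15 min) of A-172 cells pre-incubated 1 h with an 8-point compound dilution series in 0.3% DMSO after 24 h serum starvation. IC50 by 4-parameter logistic fit, with DMSO-treated and reference-inhibitor wells as 100% and 0% activity.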

KDR, sequence (P35968 20-1356): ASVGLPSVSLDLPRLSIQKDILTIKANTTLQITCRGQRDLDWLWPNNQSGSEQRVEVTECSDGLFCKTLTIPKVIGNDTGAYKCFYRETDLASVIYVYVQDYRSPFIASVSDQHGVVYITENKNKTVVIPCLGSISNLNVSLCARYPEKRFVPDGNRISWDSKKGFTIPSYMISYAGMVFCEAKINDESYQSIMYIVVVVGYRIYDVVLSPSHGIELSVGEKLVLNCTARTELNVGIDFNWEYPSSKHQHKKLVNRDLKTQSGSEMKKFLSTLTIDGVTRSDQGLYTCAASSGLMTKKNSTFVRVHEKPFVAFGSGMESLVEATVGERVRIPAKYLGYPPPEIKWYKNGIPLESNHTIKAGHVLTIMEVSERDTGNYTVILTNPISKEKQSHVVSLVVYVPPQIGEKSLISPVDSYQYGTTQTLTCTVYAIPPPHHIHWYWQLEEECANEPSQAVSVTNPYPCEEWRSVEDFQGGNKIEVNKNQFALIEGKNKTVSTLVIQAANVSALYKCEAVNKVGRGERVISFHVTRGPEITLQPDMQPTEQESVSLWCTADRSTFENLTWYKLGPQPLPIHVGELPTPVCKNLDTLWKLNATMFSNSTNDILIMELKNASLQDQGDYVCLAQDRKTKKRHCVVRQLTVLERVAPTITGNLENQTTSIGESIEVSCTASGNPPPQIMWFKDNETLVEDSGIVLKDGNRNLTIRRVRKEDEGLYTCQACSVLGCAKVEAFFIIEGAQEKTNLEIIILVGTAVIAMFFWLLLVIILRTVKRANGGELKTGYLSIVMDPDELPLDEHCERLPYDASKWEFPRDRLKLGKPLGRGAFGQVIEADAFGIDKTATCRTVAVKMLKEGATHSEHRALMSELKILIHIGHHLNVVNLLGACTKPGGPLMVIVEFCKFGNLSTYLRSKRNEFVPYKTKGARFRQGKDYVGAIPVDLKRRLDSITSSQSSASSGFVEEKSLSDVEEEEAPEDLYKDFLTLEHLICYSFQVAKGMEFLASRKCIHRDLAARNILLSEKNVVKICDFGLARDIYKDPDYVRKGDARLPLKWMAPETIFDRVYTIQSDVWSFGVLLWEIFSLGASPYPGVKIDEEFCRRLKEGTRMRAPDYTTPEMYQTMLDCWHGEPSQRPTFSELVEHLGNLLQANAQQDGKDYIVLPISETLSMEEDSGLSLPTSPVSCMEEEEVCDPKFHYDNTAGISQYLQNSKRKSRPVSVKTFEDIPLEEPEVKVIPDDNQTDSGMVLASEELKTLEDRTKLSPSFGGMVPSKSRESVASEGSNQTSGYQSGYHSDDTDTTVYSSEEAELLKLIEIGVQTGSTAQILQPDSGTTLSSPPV

Consider `COc1cc2nccc(Oc3ccc(NC(=O)c4cnc(C)c(-c5ccco5)c4O)cc3)c2nc1OC` [Compound 255, N-[4-[(6,7-Dimethoxy-1,5-naphthyridin-4-yl)oxy]phenyl]-5-(furan-2-yl)-4-hydroxy-6-methylpyridine-3-carboxamide], for which the IC50 against KDR and against AXL was ≤ 100 nM each time.

Regarding `COc1cc2nccc(Oc3ccc(NC(=O)c4c(C)ncc(-c5ncc(F)cc5C)c4O)cc3F)c2nc1OC` [Compound 200, N-[4-[(6,7-Dimethoxy-1,5-naphthyridin-4-yl)oxy]-3-fluorophenyl]-5-(5-fluoro-3-methylpyridin-2-yl)-4-hydroxy-2-methylpyridine-3-carboxamide], the IC50 against KDR and at AXL was ≤ 100 nM throughout.

Turning to `COc1cc2nccc(Oc3ccc(NC(=O)c4cnc(C)c(-c5ccco5)n4)cc3F)c2nc1OC` [Compound 269, N-[4-[(6,7-Dimethoxy-1,5-naphthyridin-4-yl)oxy]-3-fluorophenyl]-6-(furan-2-yl)-5-methylpyrazine-2-carboxamide], the IC50 against KDR and on AXL was 300 to 1000 nM in each case.

Turning to `CCc1c(C(=O)Nc2ccc(Oc3ccnc4cc(OC)c(OC)nc34)c(F)c2)c(=O)c(-c2ccco2)c(C)n1C` [Compound 324, N-[4-[(6,7-Dimethoxy-1,5-naphthyridin-4-yl)oxy]-3-fluorophenyl]-2-ethyl-5-(furan-2-yl)-1,6-dimethyl-4-oxopyridine-3-carboxamide], the 50% inhibitory concentration (IC50) against KDR and against AXL was ≤ 100 nM each time.

Regarding `COc1cc2nccc(Oc3ccc(NC(=O)c4c5n(cc(-c6cccs6)c4=O)CCOC5)cc3)c2nc1OC` [Compound 299, N-[4-[(6,7-Dimethoxy-1,5-naphthyridin-4-yl)oxy]phenyl]-8-oxo-7-thiophen-2-yl-3,4-dihydro-1H-pyrido[2,1-c][1,4]oxazine-9-carboxamide], the IC50 against KDR is 300 to 1000 nM; at AXL, ≤ 100 nM.

Turning to `COc1cc2nccc(Oc3ccc(NC(=O)c4cn(C)c(C)c(-c5ccc(F)cn5)c4=O)cc3)c2nc1OC` [Compound 86, N-[4-[(6,7-Dimethoxy-1,5-naphthyridin-4-yl)oxy]phenyl]-5-(5-fluoropyridin-2-yl)-1,6-dimethyl-4-oxopyridine-3-carboxamide], the IC50 at KDR was 300 to 1000 nM; on AXL it was ≤ 100 nM.

On to `COc1cc2nccc(Oc3ccc(NC(=O)c4cnc(C)c(-c5ccc(F)cn5)c4O)cc3F)c2nc1OC` [Compound 85, N-[4-[(6,7-Dimethoxy-1,5-naphthyridin-4-yl)oxy]-3-fluorophenyl]-5-(5-fluoropyridin-2-yl)-4-hydroxy-6-methylpyridine-3-carboxamide], for which the IC50 against KDR and on AXL was ≤ 100 nM throughout.

With `COc1cc2nccc(Oc3ccc(NC(=O)c4cccn(-c5ccc(F)cn5)c4=O)cc3F)c2nc1OC` [Compound 42, N-[4-[(6,7-Dimethoxy-1,5-naphthyridin-4-yl)oxy]-3-fluorophenyl]-1-(5-fluoropyridin-2-yl)-2-oxopyridine-3-carboxamide], the IC50 against KDR and on AXL was ≤ 100 nM in each case.

In the case of `Cc1ccc(C(=O)Nc2ccc(Oc3ccnc4cccnc34)c(F)c2)c(=O)n1-c1ccc(F)cn1` [Compound 48, N-[3-Fluoro-4-(1,5-naphthyridin-4-yloxy)phenyl]-1-(5-fluoropyridin-2-yl)-6-methyl-2-oxopyridine-3-carboxamide], the IC50 against KDR is 300 to 1000 nM; against AXL it was ≤ 100 nM.

In the case of `COc1cc2nccc(Oc3ccc(NC(=O)c4cc(C(C)=O)c(C)n(-c5ccco5)c4=O)cc3F)c2nc1OC` [Compound 236, 5-Acetyl-N-[4-[(6,7-dimethoxy-1,5-naphthyridin-4-yl)oxy]-3-fluorophenyl]-1-(furan-2-yl)-6-methyl-2-oxopyridine-3-carboxamide], the results for the IC50 against KDR and at AXL were 300 to 1000 nM and ≤ 100 nM, respectively.

For `COc1cc2nccc(Oc3ccc(NC(=O)c4ccc(C)n(-c5cccnn5)c4=O)cc3F)c2nc1OC` [Compound 234, N-[4-[(6,7-Dimethoxy-1,5-naphthyridin-4-yl)oxy]-3-fluorophenyl]-6-methyl-2-oxo-1-pyridazin-3-ylpyridine-3-carboxamide], the figures for the IC50 on KDR and against AXL were 100 to 300 nM and ≤ 100 nM, respectively.

Consider `COc1cc2nccc(Oc3ccc(NC(=O)c4c(C)ncc(-c5ccccn5)c4O)cc3F)c2nc1OC` [Compound 69, N-[4-[(6,7-Dimethoxy-1,5-naphthyridin-4-yl)oxy]-3-fluorophenyl]-4-hydroxy-2-methyl-5-pyridin-2-ylpyridine-3-carboxamide], for which the IC50 on KDR and on AXL was ≤ 100 nM in each case.

With `COc1cc2nccc(Oc3ccc(NC(=O)c4ccc(C)n(-c5cccnc5)c4=O)cc3F)c2nc1OC` [Compound 222, N-[4-[(6,7-Dimethoxy-1,5-naphthyridin-4-yl)oxy]-3-fluorophenyl]-6-methyl-2-oxo-1-pyridin-3-ylpyridine-3-carboxamide], the IC50 on KDR and against AXL was ≤ 100 nM each time.

As for `COCCOc1cc2nccc(Oc3ccc(NC(=O)c4c(C)n(C)c(C)c(-c5cc6ccccc6o5)c4=O)cc3F)c2nc1OC` [Compound 263, 5-(1-Benzofuran-2-yl)-N-[3-fluoro-4-[[6-methoxy-7-(2-methoxyethoxy)-1,5-naphthyridin-4-yl]oxy]phenyl]-1,2,6-trimethyl-4-oxopyridine-3-carboxamide], the values for the IC50 against KDR and on AXL were 300 to 1000 nM and ≤ 100 nM, respectively.

For `COc1cc2nccc(Oc3ccc(NC(=O)c4c5n(cc(-c6cc(C)cs6)c4=O)CCOC5)cc3)c2nc1OC` [Compound 303, N-[4-[(6,7-Dimethoxy-1,5-naphthyridin-4-yl)oxy]phenyl]-7-(4-methylthiophen-2-yl)-8-oxo-3,4-dihydro-1H-pyrido[2,1-c][1,4]oxazine-9-carboxamide], the IC50 was 300 to 1000 nM against KDR and ≤ 100 nM on AXL.

In the case of `COc1cnc2c(Oc3ccc(NC(=O)c4ccc(C)n(-c5ccc(F)cn5)c4=O)cc3F)ccnc2c1` [Compound 45, N-[3-Fluoro-4-[(7-methoxy-1,5-naphthyridin-4-yl)oxy]phenyl]-1-(5-fluoropyridin-2-yl)-6-methyl-2-oxopyridine-3-carboxamide], the IC50 against KDR and against AXL was ≤ 100 nM in each case.

Consider `COc1cc2nccc(Oc3ccc(NC(=O)c4ccc(C)n(-c5ncc(F)cc5C)c4=O)cc3F)c2nc1OC` [Compound 51, N-[4-[(6,7-Dimethoxy-1,5-naphthyridin-4-yl)oxy]-3-fluorophenyl]-1-(5-fluoro-3-methylpyridin-2-yl)-6-methyl-2-oxopyridine-3-carboxamide], for which the IC50 against KDR and against AXL was ≤ 100 nM throughout.

Consider `COc1cnc2c(Oc3ccc(NC(=O)c4ccc(C)n(-c5ncc(F)cc5C)c4=O)cc3F)ccnc2c1` [Compound 52, N-[3-Fluoro-4-[(7-methoxy-1,5-naphthyridin-4-yl)oxy]phenyl]-1-(5-fluoro-3-methylpyridin-2-yl)-6-methyl-2-oxopyridine-3-carboxamide], for which the concentration for half-maximal inhibition (IC50) against KDR and at AXL was ≤ 100 nM in each case.

For `COc1cc2nccc(Oc3ccc(NC(=O)c4cnc(C)c(-c5ccco5)c4O)cc3F)c2cc1OC` [Compound 259, N-[4-(6,7-Dimethoxyquinolin-4-yl)oxy-3-fluorophenyl]-5-(furan-2-yl)-4-hydroxy-6-methylpyridine-3-carboxamide], the IC50 against KDR and against AXL was ≤ 100 nM each time.

Consider `COc1cc2nccc(Oc3ccc(NC(=O)c4ccc(C)n(-c5cc[n+]([O-])cc5)c4=O)cc3F)c2nc1OC` [Compound 231, N-[4-[(6,7-Dimethoxy-1,5-naphthyridin-4-yl)oxy]-3-fluorophenyl]-6-methyl-1-(1-oxidopyridin-1-ium-4-yl)-2-oxopyridine-3-carboxamide], for which the IC50 at KDR is 100 to 300 nM; at AXL it was ≤ 100 nM.

Take `COc1cc2nccc(Oc3ccc(NC(=O)c4ccc(C)n(-c5ccc(F)c(C)n5)c4=O)cc3F)c2nc1OC` [Compound 227, N-[4-[(6,7-Dimethoxy-1,5-naphthyridin-4-yl)oxy]-3-fluorophenyl]-1-(5-fluoro-6-methylpyridin-2-yl)-6-methyl-2-oxopyridine-3-carboxamide hydrochloride]: the IC50 on KDR and against AXL was ≤ 100 nM each time.
